Results on one compound are retold here after patent US20240108634A1, “COMPOSITIONS AND METHODS FOR INHIBITING YAP” (The United States Government as represented by the …, priority 2021, published 2024).

One series relates to LN229 and GBM39 cells. Nature of the series: Boyden chamber migration towards vitronectin or fibronectin. The format is cell-based, human. To be noted: vitronectin or fibronectin versus BSA-coated chambers. From the text: Cells were layered in soft agar to evaluate anchorage-independent growth in the presence of the indicated concentrations of inhibitor and colonies counted following 14 days of growth. Representative crystal violet stained images are shown below. Data represent mean+S.D. of three independent experiments. […] Cells were placed in Boyden chambers and allowed to migrate towards BSA (white bars), vitronectin (light yellow bars), or fibronectin (dark yellow bars) (*, P<0.05; n=3). […] Representative crystal violet stained images are shown (200×). Data represent mean+S.D. of three independent experiments. […] Graphical data shown below represent mean+S.D. (late apoptosis; annexin V-positive, PI-positive) of three independent experiments.
Cell proliferation, clonogenic, migration, invasion and apoptosis assays. Cell proliferation was determined via Cell Titer-Glo® luminescent cell assays (Promega). Clonogenic assays were done by plating a total of 1,000 cells per well in 24-well plates in a total volume of 400 μL using a two-layered soft agar system as previously described (Masri J, et al. (2007) Cancer Res 67: 11712-11720). Cell migration assays were conducted using precoated modified Boyden chambers as previously described (Benavides-Serrato A, et al. (2017) PLoS One 12: e0176599). […]

A further series addresses T1, full-length YAP (Homo sapiens, UniProt P46937).
T1 construct: made in house; host or cells: bacterial (inferred)
Nature of the series: Surface plasmon resonance of NSC682769 analyte on immobilized full-length YAP. To be noted: SPR, 25° C., read-out: Kd from steady-state binding. As for the experimental part: FIGS. 1A-G show the identification of a YAP1-TEAD1 binding interface inhibitor. […] The Gal4 DBD was fused to residues 50-171 of human YAP1 and the Gal4 AD was fused to residues 194-411 of human TEAD1. These fusions were expressed in yeast containing reporters harboring Gal4 upstream activating sequences (UAS). […] Yeast expressing either p53-DBD and SV40 large T antigen-AD fusions or YAP1-DBD and TEAD1-AD fusions were plated on selective media. Compounds were pinned onto the plate surfaces by robotic transfer and subsequently examined for halo formation (indicated by red circles). Compounds inhibiting YAP1-TEAD1 mediated growth on selective media while having no effect on p53-T antigen mediated yeast growth were considered specific. […] Pull-down products were analyzed by SDS-PAGE and silver staining. […] Raw binding sensorgrams obtained at each concentration were fitted to a 1:1 binding model and Kon, Koff and KD were calculated by simultaneous non-linear regression analyses.
Surface plasmon resonance (SPR), ELISA, YAP-TEAD reporter activity, cellular fractionation, and immunofluorescence analyses. […] YAP-TEAD reporter activity was determined as previously described (Kim N G, Gumbiner B M (2015) J Cell Biol 210: 503-515). […] Luciferase activity was measured via a luciferase assay system (Promega). […] Cell lysis was monitored by trypan blue staining. […]
(In general: Surface plasmon resonance follows binding to a sensor surface in real time, without labels.)

The next series deals with normal human neurons. Kind of series: TUNEL staining of normal human neurons. The format is cell-based. The note with it: 48 h exposures. The text has this:
Data shown are mean+S.D., n=3.
Materials and Methods. Cell culture, vectors and reagents. Normal mature human neurons were obtained from ScienCell (Carlsbad, CA). Lines were routinely tested to confirm the absence of mycoplasma and authenticated by short tandem repeat profiling (ATCC). The myc-tagged TEAD (pRK5-Myc-TEAD1) and HA-tagged YAP1 (pCl-HA-YAP) vectors were used for mammalian expression and TEAD was subcloned into pGEX-2TK, while YAP was subcloned into pET-14b for bacterial expression and purification. DNA transfections were performed using Effectene transfection reagent according to the manufacturer (QIAGEN) and lentiviral transductions were performed as previously described (Rosenbluh J, et al. (2012) Cell 151: 1457-1473). Large-scale syntheses of NSC682769 was performed by New England Discovery Partners, Branford, CT. The other reagents including kits for ALT, AST and creatinine level determinations were from Sigma-Aldrich.

T1 sequence (P46937 whole entry): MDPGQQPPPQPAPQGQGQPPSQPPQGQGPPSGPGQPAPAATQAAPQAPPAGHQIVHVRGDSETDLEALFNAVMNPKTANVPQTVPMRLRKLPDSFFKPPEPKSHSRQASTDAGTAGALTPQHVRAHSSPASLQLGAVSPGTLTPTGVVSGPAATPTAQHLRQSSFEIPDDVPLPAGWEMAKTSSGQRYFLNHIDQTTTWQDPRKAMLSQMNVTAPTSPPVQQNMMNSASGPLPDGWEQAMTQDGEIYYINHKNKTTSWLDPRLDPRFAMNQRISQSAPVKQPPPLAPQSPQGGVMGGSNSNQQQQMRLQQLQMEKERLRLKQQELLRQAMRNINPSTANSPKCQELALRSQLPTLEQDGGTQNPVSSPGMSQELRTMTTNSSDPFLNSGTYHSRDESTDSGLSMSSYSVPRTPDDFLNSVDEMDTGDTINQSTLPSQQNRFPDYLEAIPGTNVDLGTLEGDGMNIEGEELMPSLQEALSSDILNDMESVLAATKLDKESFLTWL

Usually Kd stands for the constant that tells how readily two partners part at equilibrium. Regarding `COc1ccc(-c2cc(-c3ccccc3)nc3c2CC(=O)Nc2ccccc2-3)cc1OC` [NSC682769], the Cell migration entry in the series with LN229 and GBM39 cells is given as “inhibited the number of cells capable of migrating”. Besides, the equilibrium dissociation constant (Kd) at full-length YAP amounted to 738 nM. Further, the “Toxicity to normal human neurons” value in the series with normal human neurons was “minimal toxicity”.
